The target of the experiment is T1, ALDH1A3 (Homo sapiens, UniProt P47895).
T1 sequence (P47895 2-512): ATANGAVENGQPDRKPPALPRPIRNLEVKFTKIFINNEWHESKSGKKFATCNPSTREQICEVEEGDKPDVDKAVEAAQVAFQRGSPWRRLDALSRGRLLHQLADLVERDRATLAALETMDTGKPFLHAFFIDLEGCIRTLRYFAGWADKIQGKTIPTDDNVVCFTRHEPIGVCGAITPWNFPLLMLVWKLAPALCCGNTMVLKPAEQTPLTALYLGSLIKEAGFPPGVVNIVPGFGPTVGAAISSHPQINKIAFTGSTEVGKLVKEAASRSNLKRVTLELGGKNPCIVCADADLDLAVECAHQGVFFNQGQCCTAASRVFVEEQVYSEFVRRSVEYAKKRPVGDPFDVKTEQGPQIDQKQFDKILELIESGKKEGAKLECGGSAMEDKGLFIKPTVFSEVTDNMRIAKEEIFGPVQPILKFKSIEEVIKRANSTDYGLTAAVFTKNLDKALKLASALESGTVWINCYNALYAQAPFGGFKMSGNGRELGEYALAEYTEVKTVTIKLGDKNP
In words: Aldefluor assay in A375 cells; also recombinant human ALDH1a3 in crude bacterial lysate (resazurin/diaphorase-coupled). The format is cell-based. A general note: Alamar Blue is a resazurin reagent that responds to reducing activity.

Take `CCc1cnccc1C(=O)Nc1cc2c(cc1F)NC(=O)CC2` [KOTX1]: the IC50 came out at 5.1 nM.

As usually defined, the IC50 is the midpoint of a concentration-inhibition curve.

The record behind these values is article PMC9895451, “Genetic and pharmacologic inhibition of ALDH1A3 as a treatment of β-cell failure” (Nature Communications, 2023).
